Reference: patent US20260166128A1, “HUMAN AMYLIN ANALOG, AND DERIVATIVE THEREOF AND USE THEREOF” (priority 2022, published 2026)
Numbered stars: 1 amine (or outer) side, 2 acyl side, 3 side chain; on linkers, the order of the positions; unused ones are H or OH. Bridge positions count the residues as written; N and C are the ends. Square brackets hold non-standard residues; d marks the D form. Side chains are listed from the residue outwards. Peptide text beside a SMILES is read from it. * marks the point of attachment. C20 diacid = O=C(O)CCCCCCCCCCCCCCCCCCC(=O)*; γGlu = O=C(O)[C@H](CCC(=O)[*:2])N[*:1]; Hyp = O=C(O)[C@@H]1C[C@@H](O)CN1; Orn = NCCC[C@H](N)C(=O)O; Dab = NCC[C@H](N)C(=O)O; Dap = NC[C@H](N)C(=O)O

Biological target: T1, human amylin receptor (Homo sapiens, UniProt O60896+P30988)
T1 construct: host or cells: CHO-K1/Ga15/AMY3 cells, further stably transfected with a CRE-luciferase plasmid
T1 sequence (P30988 25-474): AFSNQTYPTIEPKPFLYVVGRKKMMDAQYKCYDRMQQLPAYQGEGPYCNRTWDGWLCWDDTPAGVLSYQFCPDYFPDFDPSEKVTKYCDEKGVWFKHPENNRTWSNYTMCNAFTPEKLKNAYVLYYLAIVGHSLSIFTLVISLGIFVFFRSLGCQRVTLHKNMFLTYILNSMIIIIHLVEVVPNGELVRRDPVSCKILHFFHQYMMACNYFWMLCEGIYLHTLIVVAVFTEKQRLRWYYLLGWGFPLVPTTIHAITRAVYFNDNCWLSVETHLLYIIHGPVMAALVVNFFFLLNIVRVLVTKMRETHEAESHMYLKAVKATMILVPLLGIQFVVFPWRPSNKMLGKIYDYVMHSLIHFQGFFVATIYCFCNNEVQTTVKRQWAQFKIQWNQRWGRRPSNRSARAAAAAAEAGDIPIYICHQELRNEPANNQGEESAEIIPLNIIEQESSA
T1 sequence (O60896 24-148 partner): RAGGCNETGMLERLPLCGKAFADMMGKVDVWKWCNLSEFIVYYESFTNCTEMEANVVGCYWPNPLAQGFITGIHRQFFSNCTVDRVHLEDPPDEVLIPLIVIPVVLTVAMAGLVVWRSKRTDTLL
Experiment: Luciferase assay of amylin derivatives in amylin receptor/CRE-luc CHO cell line
Format: cell-based
Conditions: CHO-K1/Ga15/AMY3 CRE-luc cells, 24 hours incubation, F12 medium containing 10% FBS; read-out: EC50
Method: The experiment was intended to detect the activity or efficacy of the amylin derivatives on a human amylin receptor in vitro by luciferase assay.
50 μL of growth medium (F12 medium containing 10% FBS) was added into each well of a white 96-well plate, and the stably transfected amylin/CRE-lue CHO cells were inoculated into the white 96-well plate at a density of about 20,000 cells/well for activity determination.

Structure (SMILES)	EC50
CC[C@H](C)[C@H](NC(=O)[C@@H]1CCCN1C(=O)[C@H](CCCCNC(=O)CC[C@H](NC(=O)CCCCCCCCCCCCCCCCCCC(=O)O)C(=O)O)NC(=O)[C@H](CC(C)C)NC(=O)[C@H](CC(N)=O)NC(=O)[C@H](CC(N)=O)NC(=O)[C@H](CO)NC(=O)[C@H](CO)NC(=O)[C@H](Cc1c[nH]cn1)NC(=O)[C@H](CCCNC(=N)N)NC(=O)[C@H](CC(C)C)NC(=O)[C@H](Cc1ccccc1)NC(=O)[C@H](CC(=O)O)NC(=O)[C@H](C)NC(=O)[C@H](CC(C)C)NC(=O)[C@H](CCCNC(=N)N)NC(=O)[C@H](CCC(N)=O)NC(=O)[C@@H](NC(=O)[C@H](C)NC(=O)[C@@H]1CSSC[C@H](NC(=O)[C@@H](N)CN)C(=O)N[C@@H](CC(N)=O)C(=O)N[C@@H]([C@@H](C)O)C(=O)N[C@@H](C)C(=O)N[C@@H]([C@@H](C)O)C(=O)N1)[C@@H](C)O)C(=O)N[C@@H](CC(C)C)C(=O)N1CCC[C@H]1C(=O)N1CCC[C@H]1C(=O)N[C@H](C(=O)N[C@@H](CC(N)=O)C(=O)N[C@H](C(=O)NCC(=O)N[C@@H](CO)C(=O)N[C@@H](CC(N)=O)C(=O)N[C@H](C(=O)N1C[C@H](O)C[C@H]1C(N)=O)[C@@H](C)O)C(C)C)[C@@H](C)O [PD073] (H-[Dap]CNTATCATQRLADFLRHSSNNLK([γGlu-C20 diacid])PILPPTNVGSNT[Hyp]-NH2; disulfide 2-7)	0.063 nM
CC[C@H](C)[C@H](NC(=O)[C@@H]1CCCN1C(=O)[C@H](CCCCNC(=O)CC[C@H](NC(=O)CCCCCCCCCCCCCCCCCCC(=O)O)C(=O)O)NC(=O)[C@H](CC(C)C)NC(=O)[C@H](CC(N)=O)NC(=O)[C@H](CC(N)=O)NC(=O)[C@H](CO)NC(=O)[C@H](CO)NC(=O)[C@H](Cc1c[nH]cn1)NC(=O)[C@H](CCCNC(=N)N)NC(=O)[C@H](CC(C)C)NC(=O)[C@H](Cc1ccccc1)NC(=O)[C@H](CC(=O)O)NC(=O)[C@H](C)NC(=O)[C@H](CC(C)C)NC(=O)[C@H](CCCNC(=N)N)NC(=O)[C@H](CCC(N)=O)NC(=O)[C@@H](NC(=O)[C@H](C)NC(=O)[C@@H]1CSSC[C@H](NC(=O)[C@@H](N)CCN)C(=O)N[C@@H](CC(N)=O)C(=O)N[C@@H]([C@@H](C)O)C(=O)N[C@@H](C)C(=O)N[C@@H]([C@@H](C)O)C(=O)N1)[C@@H](C)O)C(=O)N[C@@H](CC(C)C)C(=O)N1CCC[C@H]1C(=O)N1CCC[C@H]1C(=O)N[C@H](C(=O)N[C@@H](CC(N)=O)C(=O)N[C@H](C(=O)NCC(=O)N[C@@H](CO)C(=O)N[C@@H](CC(N)=O)C(=O)N[C@H](C(=O)N1C[C@H](O)C[C@H]1C(N)=O)[C@@H](C)O)C(C)C)[C@@H](C)O [PD074] (H-[Dab]CNTATCATQRLADFLRHSSNNLK([γGlu-C20 diacid])PILPPTNVGSNT[Hyp]-NH2; disulfide 2-7)	0.066 nM
CC[C@H](C)[C@H](NC(=O)[C@@H]1CCCN1C(=O)[C@H](CCCCNC(=O)CC[C@H](NC(=O)CCCCCCCCCCCCCCCCCCC(=O)O)C(=O)O)NC(=O)[C@H](CC(C)C)NC(=O)[C@H](CC(N)=O)NC(=O)[C@H](CC(N)=O)NC(=O)[C@H](CO)NC(=O)[C@H](CO)NC(=O)[C@H](Cc1c[nH]cn1)NC(=O)[C@H](CCCNC(=N)N)NC(=O)[C@H](CC(C)C)NC(=O)[C@H](Cc1ccccc1)NC(=O)[C@H](CC(=O)O)NC(=O)[C@H](C)NC(=O)[C@H](CC(C)C)NC(=O)[C@H](CCCNC(=N)N)NC(=O)[C@H](CCC(N)=O)NC(=O)[C@@H](NC(=O)[C@H](C)NC(=O)[C@@H]1CSSC[C@H](NC(=O)[C@@H](N)CCCN)C(=O)N[C@@H](CC(N)=O)C(=O)N[C@@H]([C@@H](C)O)C(=O)N[C@@H](C)C(=O)N[C@@H]([C@@H](C)O)C(=O)N1)[C@@H](C)O)C(=O)N[C@@H](CC(C)C)C(=O)N1CCC[C@H]1C(=O)N1CCC[C@H]1C(=O)N[C@H](C(=O)N[C@@H](CC(N)=O)C(=O)N[C@H](C(=O)NCC(=O)N[C@@H](CO)C(=O)N[C@@H](CC(N)=O)C(=O)N[C@H](C(=O)N1C[C@H](O)C[C@H]1C(N)=O)[C@@H](C)O)C(C)C)[C@@H](C)O [PD075] (H-[Orn]CNTATCATQRLADFLRHSSNNLK([γGlu-C20 diacid])PILPPTNVGSNT[Hyp]-NH2; disulfide 2-7)	0.048 nM

The next compounds have a lower EC50 than those just listed; values first:

EC50	Structure (SMILES)
0.032 nM	CC[C@H](C)[C@H](NC(=O)[C@@H]1CCCN1C(=O)CNC(=O)[C@H](Cc1ccccc1)NC(=O)[C@H](CC(N)=O)NC(=O)[C@H](CC(N)=O)NC(=O)[C@H](CO)NC(=O)[C@H](CO)NC(=O)[C@H](Cc1c[nH]cn1)NC(=O)[C@H](CCCNC(=N)N)NC(=O)[C@H](CC(C)C)NC(=O)[C@H](Cc1ccccc1)NC(=O)[C@H](CC(=O)O)NC(=O)[C@H](C)NC(=O)[C@H](CC(C)C)NC(=O)[C@H](CCCNC(=N)N)NC(=O)[C@H](CCC(N)=O)NC(=O)[C@@H](NC(=O)[C@H](C)NC(=O)[C@@H]1CSSC[C@H](NC(=O)[C@@H](N)CCCCNC(=O)CC[C@H](NC(=O)CCCCCCCCCCCCCCCCCCC(=O)O)C(=O)O)C(=O)N[C@@H](CC(N)=O)C(=O)N[C@@H]([C@@H](C)O)C(=O)N[C@@H](C)C(=O)N[C@@H]([C@@H](C)O)C(=O)N1)[C@@H](C)O)C(=O)N[C@@H](CC(C)C)C(=O)N1CCC[C@H]1C(=O)N1CCC[C@H]1C(=O)N[C@H](C(=O)N[C@@H](CC(N)=O)C(=O)N[C@H](C(=O)NCC(=O)N[C@@H](CO)C(=O)N[C@@H](CC(N)=O)C(=O)N[C@H](C(=O)N1C[C@H](O)C[C@H]1C(N)=O)[C@@H](C)O)C(C)C)[C@@H](C)O [PD068] (H-K([γGlu-C20 diacid])CNTATCATQRLADFLRHSSNNFGPILPPTNVGSNT[Hyp]-NH2; disulfide 2-7)
0.039 nM	CC[C@H](C)[C@H](NC(=O)[C@@H]1CCCN1C(=O)CNC(=O)[C@H](CC(C)C)NC(=O)[C@H](CC(N)=O)NC(=O)[C@H](CC(N)=O)NC(=O)[C@H](CO)NC(=O)[C@H](CO)NC(=O)[C@H](Cc1c[nH]cn1)NC(=O)[C@H](CCCNC(=N)N)NC(=O)[C@H](CC(C)C)NC(=O)[C@H](Cc1ccccc1)NC(=O)[C@H](CC(=O)O)NC(=O)[C@H](C)NC(=O)[C@H](CC(C)C)NC(=O)[C@H](CCCNC(=N)N)NC(=O)[C@H](CCC(N)=O)NC(=O)[C@@H](NC(=O)[C@H](C)NC(=O)[C@@H]1CSSC[C@H](NC(=O)[C@H](CCCCN)NC(=O)CC[C@H](NC(=O)CCCCCCCCCCCCCCCCCCC(=O)O)C(=O)O)C(=O)N[C@@H](CC(N)=O)C(=O)N[C@@H]([C@@H](C)O)C(=O)N[C@@H](C)C(=O)N[C@@H]([C@@H](C)O)C(=O)N1)[C@@H](C)O)C(=O)N[C@@H](CC(C)C)C(=O)N1CCC[C@H]1C(=O)N1CCC[C@H]1C(=O)N[C@H](C(=O)N[C@@H](CC(N)=O)C(=O)N[C@H](C(=O)NCC(=O)N[C@@H](CO)C(=O)N[C@@H](CC(N)=O)C(=O)N[C@H](C(=O)N1C[C@H](O)C[C@H]1C(N)=O)[C@@H](C)O)C(C)C)[C@@H](C)O [PD069] ({C20 diacid-γGlu}-KCNTATCATQRLADFLRHSSNNLGPILPPTNVGSNT[Hyp]-NH2; disulfide 2-7)
0.028 nM	CC[C@H](C)[C@H](NC(=O)[C@@H]1CCCN1C(=O)[C@H](CCCCN)NC(=O)[C@H](CC(C)C)NC(=O)[C@H](CC(N)=O)NC(=O)[C@H](CC(N)=O)NC(=O)[C@H](CO)NC(=O)[C@H](CO)NC(=O)[C@H](Cc1c[nH]cn1)NC(=O)[C@H](CCCNC(=N)N)NC(=O)[C@H](CC(C)C)NC(=O)[C@H](Cc1ccccc1)NC(=O)[C@H](CC(=O)O)NC(=O)[C@H](C)NC(=O)[C@H](CC(C)C)NC(=O)[C@H](CCCNC(=N)N)NC(=O)[C@H](CCC(N)=O)NC(=O)[C@@H](NC(=O)[C@H](C)NC(=O)[C@@H]1CSSC[C@H](NC(=O)[C@H](CCCCN)NC(=O)CC[C@H](NC(=O)CCCCCCCCCCCCCCCCCCC(=O)O)C(=O)O)C(=O)N[C@@H](CC(N)=O)C(=O)N[C@@H]([C@@H](C)O)C(=O)N[C@@H](C)C(=O)N[C@@H]([C@@H](C)O)C(=O)N1)[C@@H](C)O)C(=O)N[C@@H](CC(C)C)C(=O)N1CCC[C@H]1C(=O)N1CCC[C@H]1C(=O)N[C@H](C(=O)N[C@@H](CC(N)=O)C(=O)N[C@H](C(=O)NCC(=O)N[C@@H](CO)C(=O)N[C@@H](CC(N)=O)C(=O)N[C@H](C(=O)N1C[C@H](O)C[C@H]1C(N)=O)[C@@H](C)O)C(C)C)[C@@H](C)O [PD071] ({C20 diacid-γGlu}-KCNTATCATQRLADFLRHSSNNLKPILPPTNVGSNT[Hyp]-NH2; disulfide 2-7 (inferred))
0.027 nM	CC[C@H](C)[C@H](NC(=O)[C@@H]1CCCN1C(=O)[C@H](CCCCN)NC(=O)[C@H](CC(C)C)NC(=O)[C@H](CC(N)=O)NC(=O)[C@H](CC(N)=O)NC(=O)[C@H](CO)NC(=O)[C@H](CO)NC(=O)[C@H](Cc1c[nH]cn1)NC(=O)[C@H](CCCNC(=N)N)NC(=O)[C@H](CC(C)C)NC(=O)[C@H](Cc1ccccc1)NC(=O)[C@H](CC(=O)O)NC(=O)[C@H](C)NC(=O)[C@H](CC(C)C)NC(=O)[C@H](CCCNC(=N)N)NC(=O)[C@H](CCC(N)=O)NC(=O)[C@@H](NC(=O)[C@H](C)NC(=O)[C@@H]1CSSC[C@H](NC(=O)[C@@H](N)CCCCNC(=O)CC[C@H](NC(=O)CCCCCCCCCCCCCCCCCCC(=O)O)C(=O)O)C(=O)N[C@@H](CC(N)=O)C(=O)N[C@@H]([C@@H](C)O)C(=O)N[C@@H](C)C(=O)N[C@@H]([C@@H](C)O)C(=O)N1)[C@@H](C)O)C(=O)N[C@@H](CC(C)C)C(=O)N1CCC[C@H]1C(=O)N1CCC[C@H]1C(=O)N[C@H](C(=O)N[C@@H](CC(N)=O)C(=O)N[C@H](C(=O)NCC(=O)N[C@@H](CO)C(=O)N[C@@H](CC(N)=O)C(=O)N[C@H](C(=O)N1C[C@H](O)C[C@H]1C(N)=O)[C@@H](C)O)C(C)C)[C@@H](C)O [PD072] (H-K([γGlu-C20 diacid])CNTATCATQRLADFLRHSSNNLKPILPPTNVGSNT[Hyp]-NH2; disulfide 2-7)
